Consider 1 substance from patent publication US7951921B2, “Multivalent carriers of bi-specific antibodies” (Immunomedics, Inc., priority 2003, dated 2011).

For one data set, the system named is hMN-14IgG-(734scFv)2. As to the kind of experiment: Stoichiometry of targetable complexes, In-111 IMP 246 mixed with bsAb, size exclusion HPLC. In kind it is binding. As to conditions: 1:10 (IMP 246:bsAb) mole ratio; peak at 7.5 min. As to the method:
(§1) This Example describes experiments designed to determine the stoichiometry of different species of targetable complexes that arise when the targetable divalent construct IMP 246 is mixed with bsAbs hMN-14IgG^(I253A)-(734scFv)2, and hMN-14IgG-(734scFv)2.
(§2) The peptide IMP 246 was dissolved in 100 mL of a solution which contained 0.418 g citric acid and 10.06 g of HPCD buffered at pH 4.3. The solution was filter sterilized through a 0.22 ? m Millex GV filters in 1 mL aliquots into vials that were immediately frozen and lyophilized.
(§3) The IMP 246 was labeled with In-111 as follows. The In-111 was diluted with 0.5 mL water and added to a lyophilized IMP 246 kit. The solution was allowed to incubate at room temperature for 10 min. A 1.5 mL aliquot of a solution containing […] in 0.5 M NaOAc buffer pH 7.17 was then added to the kit.
(§4) The In-111-labelled IMP 246 was mixed with bsAb in a 1:10 (IMP 246:bsAb) mole ratio and then examined by size exclusion HPLC. When mixed with the mutant bsAb, i.e., hMN-14IgG^(I253A)-(734scFv)2, about 90% of the In-111 label was found at a clean sharp peak at 8.5 min (FIG. 8A). When mixed with hMN-14IgG-(734scFv)2, the peak was somewhat broader, comprised about 83% of the In-111 label and was found at 7.5 min (FIG. 8B). In contrast, the antibody:peptide complexes formed when IMP 192 was used were found at 9.5 min (FIG. 7).
A general note: SEC sorts molecules by how far they enter the pores of the column.

The subject of data set [1] is hMN-14IgG^(I253A)-(734scFv)2. The description is as above. The format is binding. The settings on record: 1:10 (IMP 246:bsAb) mole ratio; peak at 8.5 min. As to the method:
as §1, §2, §3, §4

Data set [2] is described as follows: Stability of IMP 246 and its complex in fresh mouse serum, size exclusion HPLC. In kind it is in vitro ADME. The settings on record: 37° C. As for the experimental part: […] A 10 μL aliquot was removed and mixed with 5 μL of 3.2 mg/mL 14IgG^(I253A)-(734scFv)2 and diluted with 40 μL water. A 10 μL aliquot of the diluted mixture was then examined by size exclusion HPLC.
A 4 μL aliquot of the labeled peptide solution was mixed with 10 μL of the 3.2 mg/mL hMN-14 IgG^(I253A)-(734scFv)2 and diluted in 400 μL of fresh mouse serum. The serum sample was incubated at 37° C. for 16 hr and then analyzed by size exclusion HPLC.
Three broad peaks comprised about 20%, 41% and 37% of the area under the curve of the HPLC tracing.

In the next data set the test system is Raji cells. Put plainly: Apoptosis of Raji cells after cross-linking of bound hA20IgG-(734scFv)2. The settings on record: Raji cells incubated with hA20IgG-(734scFv)2, 3 days, 37 degrees C. The format is cell-based. As for the experimental part: Raji cells in culture are incubated with hA20IgG-(734scFv)2. To one set of wells is added IMP-246 to cross-link molecules of hA20IgG-(734scFv)2 bound to CD20 on the surface of the Raji cells. A second set of wells to which IMP-246 is not added serve as controls, and both sets of wells incubated at 37 degrees C.
An average of 5 molecules IMP-222 are conjugated to human serum albumin (hAlb-222). The experiment described in the paragraph above is repeated, but hAb-222 is used to cross-link molecules of hA20IgG-(734scFv)2 bound to CD20 on the surface of the Raji cells, in place of IMP-246.

Primed or numbered codes have the meaning given here. DTPA′ = diethylenetriaminepentaacetic acid

For “[Ac-Cys-Lys(DTPA)-Tyr-Lys(DTPA)-NH2]2 (Ac-CK(DTPA′)YK(DTPA′)-NH2; also: disulfide-linked homodimer of two chains, disulfide at 1, other end not in the chain) [IMP 246]”, the “In-111 label found in complex peak” value with hMN-14IgG-(734scFv)2 is “about 83%”; in data set [1] it was “about 90%”. Besides, the “area under the curve of HPLC tracing in distinct peak at predicted position” value in data set [2] (in presence of bi-specific antibody, mouse serum, 16 hr) is not below 90%. Further, the “stability in mouse serum” value in data set [2] (peptide alone, 16 hours) is “unstable”. In addition, the apoptosis result with Raji cells is given as “extensive apoptosis”.
